Data as given in paper PMC9334274, “A unique class of Zn^2+-binding serine-based PBPs underlies cephalosporin resistance and sporogenesis in Clostridioides difficile” (Nature Communications, 2022).
Values after ≈ are worked out from the molar mass of the structure shown. Values joined by “and” are separate entries in the source; they are usually repeats but may differ in a detail not shown here. Equal values may be shown once. “Also recorded” adds a separate entry of the source. Read-outs that look alike come from different tables or passages of the source.

Columns and labels:
Ldt2 = test: Nitrocefin inhibition assay, Ldt2; assay type: biochemical, Clostridioides difficile R20291; conditions: for Ldt2 % inhibiton: β-lactam at 25 uM, nitrocefin hydrolysis, two independent experiments, individual values; for Nitrcoefin hydrolysis vs inhibitor (reaction curve reading): Idt2, representative curve
Method: Reactions were performed in a 96-well polystyrene plate with a final volume of 60 μL at 37 °C in 20 mM Tris pH 7, 200 mM NaCl. […] Protein was then added to the well for a final concentration of 1 µM and incubated for 15 min at 37 °C. 1 µL of nitrocefin (Millipore Sigma) was then added to each well for a final concentration of 20 µM, and reaction progress was monitored using a BioTek Cytation 5 plate reader (BioTek Instruments) at 488 nm and 37 °C for 1 h. Reaction rates were normalized to the control (no inhibitor) for % inhibition values. Assays were performed in duplicate and mean % inhibition values was calculated.

C. difficile PBP3 = assay type: binding, Clostridioides difficile R20291; conditions: for PBP3 % inhibiton: 25 µM
Ldt3 = assay type: biochemical, Clostridioides difficile R20291; conditions: for Ldt3 % inhibiton / inhibition of Ldt3 (in words): 25 µM
[1] = test system: C. difficile strain R20291; test: Minimum inhibitory concentration (MIC) determination; conditions: for MIC: Clostridioides difficile, R20291, 24 h

CO/N=C(\C(=O)N[C@@H]1C(=O)N2C(C(=O)O)=C(COC(C)=O)CS[C@H]12)c1csc(N)n1 [cefotaxime]
Ldt2 % inhibiton (Ldt2; listed as CTX, 25 µM): 12.8454% and 16.2577% | PBP3 % inhibiton (C. difficile PBP3): 100.738% and 94.6733% and 99.7428% | Ldt3 % inhibiton (Ldt3): 7.194% and 11.4876% | MIC (X) [1]: 256 | MIC [1]: 256 µg/mL (≈ 562 µM)

C[C@@H](O)[C@H]1C(=O)N2C(C(=O)O)=C(SCCN=CN)C[C@H]12 [imipenem]
Ldt2 % inhibiton (Ldt2; listed as IMI, 25 µM): 15.7605% and 16.7178% | PBP3 % inhibiton (C. difficile PBP3): 83.9601% and 87.3785% and 88.7659% | MIC [1]: 128 µg/mL (≈ 428 µM)

CC1=C(C(=O)O)N2C(=O)[C@@H](NC(=O)[C@H](N)c3ccccc3)[C@H]2SC1 [cephalexin]
inhibition of Ldt2 (in words) (Ldt2; 25 µM): failing to inhibit | Ldt2 % inhibiton (Ldt2): 0% | inhibition of PBP3 (in words) (C. difficile PBP3): little to no biochemical inhibition; also recorded: no detectable inhibition | Ldt3 % inhibiton (Ldt3): 0% | inhibition of Ldt3 (in words) (Ldt3): failing to inhibit | MIC [1]: 4 µg/mL (≈ 11.5 µM)

C[C@@H](O)[C@H]1C(=O)N2C(C(=O)O)=C(S[C@@H]3CN[C@H](C(=O)N(C)C)C3)[C@H](C)[C@H]12 [meropenem]
inhibition of Ldt2 (in words) (Ldt2; 25 µM): best inhibitors of Ldt2 | Ldt2 % inhibiton (Ldt2; listed as MEM, 25 µM): 88.3495% and 88.0368% | PBP3 % inhibiton (C. difficile PBP3): 95.105% and 95.5466% and 97.2164% | Ldt3 % inhibiton (Ldt3): 25.5396% and 27.8512% | MIC [1]: 4 µg/mL (≈ 10.4 µM)

CO/N=C(\C(=O)N[C@@H]1C(=O)N2C(C(=O)O)=C(CSc3nc(=O)c(=O)[nH]n3C)CS[C@H]12)c1csc(N)n1 [ceftriaxone]
PBP3 % inhibiton (C. difficile PBP3): 101.93% and 95.7776% and 100% | MIC [1]: 32 µg/mL (≈ 57.7 µM)

CC(=O)OCC1=C(C(=O)O)N2C(=O)[C@@H](NC(=O)[C@H](N)c3ccccc3)[C@H]2SC1 [cephaloglycin]
Ldt2 % inhibiton (Ldt2): 0% | PBP3 % inhibiton (C. difficile PBP3): 95.4184% and 89.9822% and 93.12% | Ldt3 % inhibiton (Ldt3): 9.353% and 13.9669% | MIC [1]: 256 µg/mL (≈ 631 µM)

CC(=O)OCC1=C(C(=O)O)N2C(=O)[C@@H](NC(=O)Cc3cccs3)[C@H]2SC1 [cephalothin]
Ldt2 % inhibiton (Ldt2): 0% | PBP3 % inhibiton (C. difficile PBP3): 97.9928% and 94.8412% and 96.842% | Ldt3 % inhibiton (Ldt3): 13.1295% and 19.9174% | MIC [1]: 64 µg/mL (≈ 161 µM)

CCN1CCN(C(=O)N[C@@H](C(=O)N[C@@H]2C(=O)N3[C@@H]2SC(C)(C)[C@@H]3C(=O)O)c2ccccc2)C(=O)C1=O [piperacillin]
inhibition of Ldt2 (in words) (Ldt2; 25 µM): best inhibitors of Ldt2 | Ldt2 % inhibiton (Ldt2; listed as PIP, 25 µM): 57.879% and 59.7393% | PBP3 % inhibiton (C. difficile PBP3): 92.03% and 94.7239% and 96.6236% | Ldt3 % inhibiton (Ldt3): 51.7086% and 57.3554% | MIC [1]: 16 µg/mL (≈ 30.9 µM)

CC(C)(O/N=C(\C(=O)N[C@@H]1C(=O)N2C(C(=O)[O-])=C(C[n+]3ccccc3)CS[C@H]12)c1csc(N)n1)C(=O)O [ceftazidime]
PBP3 % inhibiton (C. difficile PBP3): 100% and 96.9383% | MIC [1]: 256 µg/mL (≈ 468 µM)

Cc1onc(-c2ccccc2Cl)c1C(=O)N[C@@H]1C(=O)N2[C@@H]1SC(C)(C)[C@@H]2C(=O)O [cloxacillin]
Nitrcoefin hydrolysis vs inhibitor (reaction curve reading) (Ldt2; time 0 s): 0.044 | Nitrcoefin hydrolysis vs inhibitor (reaction curve reading) (Ldt2; time 300 s): 0.046 | Nitrcoefin hydrolysis vs inhibitor (reaction curve reading) (Ldt2; time 600 s): 0.048 | Nitrcoefin hydrolysis vs inhibitor (reaction curve reading) (Ldt2; time 900 s): 0.05 | Nitrcoefin hydrolysis vs inhibitor (reaction curve reading) (Ldt2; time 1200 s): 0.051 | Nitrcoefin hydrolysis vs inhibitor (reaction curve reading) (Ldt2; time 1500 s): 0.053 | Nitrcoefin hydrolysis vs inhibitor (reaction curve reading) (Ldt2; time 1800 s): 0.054 | Nitrcoefin hydrolysis vs inhibitor (reaction curve reading) (Ldt2; time 2100 s): 0.056 | Nitrcoefin hydrolysis vs inhibitor (reaction curve reading) (Ldt2; time 2400 s): 0.057 | Ldt2 % inhibiton (Ldt2; listed as ClX, 25 µM): 15.534% and 20.6288% | PBP3 % inhibiton (C. difficile PBP3): 82.7754% and 83.7053% and 84.4216% | Ldt3 % inhibiton (Ldt3): 89.2086% and 94.2975% | inhibition of Ldt3 (in words) (Ldt3): best | Nitrcoefin hydrolysis vs inhibitor (reaction curve reading) (Ldt3; time 0 s): 0.044 | Nitrcoefin hydrolysis vs inhibitor (reaction curve reading) (Ldt3; time 300 s): 0.045 | Nitrcoefin hydrolysis vs inhibitor (reaction curve reading) (Ldt3; time 600 s): 0.045 | Nitrcoefin hydrolysis vs inhibitor (reaction curve reading) (Ldt3; time 900 s): 0.046 | Nitrcoefin hydrolysis vs inhibitor (reaction curve reading) (Ldt3; time 1200 s): 0.046 | Nitrcoefin hydrolysis vs inhibitor (reaction curve reading) (Ldt3; time 1500 s): 0.046 | Nitrcoefin hydrolysis vs inhibitor (reaction curve reading) (Ldt3; time 1800 s): 0.046 | Nitrcoefin hydrolysis vs inhibitor (reaction curve reading) (Ldt3; time 2100 s): 0.046 | Nitrcoefin hydrolysis vs inhibitor (reaction curve reading) (Ldt3; time 2400 s): 0.046 | MIC [1]: 16 µg/mL (≈ 36.7 µM)

CC1(C)S[C@@H]2[C@H](NC(=O)Cc3ccccc3)C(=O)N2[C@H]1C(=O)O [penicillin G]
Ldt2 % inhibiton (Ldt2; listed as EM, 25 µM): 2.091% and 5.675% | PBP3 % inhibiton (C. difficile PBP3): 94.9098% and 94.1115% and 95.4645% | Ldt3 % inhibiton (Ldt3): 58.9928% and 66.7769% | MIC (X) [1]: 1 | MIC [1]: 1 µg/mL (≈ 2.99 µM)

Nc1nc(/C(=N/O)C(=O)N[C@@H]2C(=O)N3C(C(=O)O)=C(/C=C4\CCN([C@@H]5CCNC5)C4=O)CS[C@H]23)ns1 [ceftobiprole]
Ldt2 % inhibiton (Ldt2; listed as BPR, 25 µM): 0% and 4.7546% | PBP3 % inhibiton (C. difficile PBP3): 100% and 96.748% | Ldt3 % inhibiton (Ldt3): 8.0036% and 4.298% | MIC [1]: 2 µg/mL (≈ 3.74 µM)

C[C@@H](O)[C@H]1C(=O)N2C(C(=O)O)=C(S[C@@H]3CN[C@H](CNS(N)(=O)=O)C3)[C@H](C)[C@H]12 [doripenem]
inhibition of Ldt2 (in words) (Ldt2; 25 µM): best inhibitors of Ldt2 | Nitrcoefin hydrolysis vs inhibitor (reaction curve reading) (Ldt2; time 0 s): 0.043 | Nitrcoefin hydrolysis vs inhibitor (reaction curve reading) (Ldt2; time 300 s): 0.044 | Nitrcoefin hydrolysis vs inhibitor (reaction curve reading) (Ldt2; time 600 s): 0.045 | Nitrcoefin hydrolysis vs inhibitor (reaction curve reading) (Ldt2; time 900 s): 0.045 | Nitrcoefin hydrolysis vs inhibitor (reaction curve reading) (Ldt2; time 1200 s): 0.045 | Nitrcoefin hydrolysis vs inhibitor (reaction curve reading) (Ldt2; time 1500 s): 0.045 | Nitrcoefin hydrolysis vs inhibitor (reaction curve reading) (Ldt2; time 1800 s): 0.046 | Nitrcoefin hydrolysis vs inhibitor (reaction curve reading) (Ldt2; time 2100 s): 0.046 | Nitrcoefin hydrolysis vs inhibitor (reaction curve reading) (Ldt2; time 2400 s): 0.047 | Ldt2 % inhibiton (Ldt2; listed as DOR, 25 µM): 92.8305% and 93.0982% | PBP3 % inhibiton (C. difficile PBP3): 95.9747% and 95.7759% and 97.3818% | Ldt3 % inhibiton (Ldt3): 49.0108% and 45.9504% | Nitrcoefin hydrolysis vs inhibitor (reaction curve reading) (Ldt3; time 0 s): 0.045 | Nitrcoefin hydrolysis vs inhibitor (reaction curve reading) (Ldt3; time 300 s): 0.046 | Nitrcoefin hydrolysis vs inhibitor (reaction curve reading) (Ldt3; time 600 s): 0.048 | Nitrcoefin hydrolysis vs inhibitor (reaction curve reading) (Ldt3; time 900 s): 0.049 | Nitrcoefin hydrolysis vs inhibitor (reaction curve reading) (Ldt3; time 1200 s): 0.05 | Nitrcoefin hydrolysis vs inhibitor (reaction curve reading) (Ldt3; time 1500 s): 0.051 | Nitrcoefin hydrolysis vs inhibitor (reaction curve reading) (Ldt3; time 1800 s): 0.052 | Nitrcoefin hydrolysis vs inhibitor (reaction curve reading) (Ldt3; time 2100 s): 0.052 | Nitrcoefin hydrolysis vs inhibitor (reaction curve reading) (Ldt3; time 2400 s): 0.053 | MIC [1]: 1 µg/mL (≈ 2.38 µM)

CO/N=C(\C(=O)N[C@@H]1C(=O)N2C(C(=O)O)=C(/C=C\c3scnc3C)CS[C@H]12)c1csc(N)n1 [cefditoren]
Ldt2 % inhibiton (Ldt2; listed as CDN, 25 µM): 13.9657% and 18.7883% | PBP3 % inhibiton (C. difficile PBP3): 82.5587% and 73.9018% and 78.609% | Ldt3 % inhibiton (Ldt3): 72.482% and 72.4793% | inhibition of Ldt3 (in words) (Ldt3): best | MIC [1]: 16 µg/mL (≈ 31.6 µM)

C[C@H]1[C@H](NC(=O)/C(=N\OC(C)(C)C(=O)O)c2csc(N)n2)C(=O)N1S(=O)(=O)O [aztreonam]
MIC [1]: 256 µg/mL (≈ 588 µM)

CC1(C)S[C@@H]2[C@H](NC(=O)[C@H](N)c3ccccc3)C(=O)N2[C@H]1C(=O)O [ampicillin]
Ldt2 % inhibiton (Ldt2; listed as AMP, 25 µM): 1.643% and 4.064% | PBP3 % inhibiton (C. difficile PBP3): 92.7496% and 89.9467% and 91.5944% | MIC (X) [1]: 2 | MIC [1]: 2 µg/mL (≈ 5.72 µM)

COc1cccc(OC)c1C(=O)N[C@@H]1C(=O)N2[C@@H]1SC(C)(C)[C@@H]2C(=O)O [methicillin]
PBP3 % inhibiton (C. difficile PBP3): 92.4606% and 92.3713% and 94.0819% | MIC [1]: 8 µg/mL (≈ 21 µM)

CO/N=C(\C(=O)N[C@@H]1C(=O)N2C(C(=O)O)=C(COC(N)=O)CS[C@H]12)c1ccco1 [cefuroxime]
PBP3 % inhibiton (C. difficile PBP3): 99.6269% and 93.7981% and 97.4091% | MIC [1]: 128 µg/mL (≈ 302 µM)
